Earlier results, collected in patent publication US20080020052A1, “Vascular Embolus Of Paclitaxel-Sodium Alginate Microsphere And Its Preparation” (priority 2004, published 2008).

## CC(=O)O[C@H]1C(=O)[C@@]2(C)[C@H]([C@H](OC(=O)c3ccccc3)[C@]3(O)C[C@H](OC(=O)[C@H](O)[C@@H](NC(=O)c4ccccc4)c4ccccc4)C(C)=C1C3(C)C)[C@]1(OC(C)=O)CO[C@@H]1C[C@@H]2O [Paclitaxel, paclitaxel]
  plasma and protein binding ratio: 89-98%
